# Legend:
# [1] = Multi-challenge study, videotaped TD movement counts (Study Four, Example 2); format: in vivo, male patients
# Method: A single patient was exposed over a period of several weeks to multiple dietary challenges, at the rate of one baseline day and one challenge day per week.
# The baseline days were Tuesdays and the challenge days were Wednesdays.
# On both Tuesdays and Wednesdays a videotaped evaluation procedure for TD was conducted and videotaped TD movement count sessions were held. These were 2 hours post-coffee on Tuesday and 2 hours post challenge on Wednesday. Movement counts were blindly rated from the videotapes by the present inventor.
# Evaluation sessions were conducted at the same time on both days with patients fasting (except for one cup of decaffeinated coffee) on the baseline days.
# A carbohydrate challenge breakfast; 223 grams of carbohydrates, 1369 calories, less than 4% protein.
# A 100 mg/kg challenge of Phe.
# A BCAA dietary supplement as follows:
# a) 2 patients had 209 mg/kg doses of BCAA powder given in orange juice
# The BCAA powder given in orange juice and in the flavored formulation at 150 mg/kg and 275 mg/kg consisted of 30 parts--valine, 30 parts-isoleucineand 40 parts-leucine.
# [2] = Phenylalanine challenge, Parkinsonism symptoms (Study Three, Example 4); format: in vivo, patients (psychotic males and females); conditions: 100 mg/kg
# Method: (§1) A third study (Study Three) was a large scale replication of Study Two with some improved technical methodology; most importantly, the switch from a protein challenge to a phenylalanine challenge and the weight standardization of the phenylalanine challenge (100 mg/kg). This investigation was conducted in 209 psychotic males and 103 psychotic females. […] This finding was independent of the age of the patient.
# (§2) As shown below, the data from this study has also enabled the present inventor to study the effect of the phenylalanine challenge on the symptom levels of Parkinsonism, akathisia and tardive dystonia. This information is important in justifying the usefulness of large neutral amino acid treatments for these disorders.
# 185 (59.3%) of the study patients made criterion for a case of Parkinsonism; […]. […] The large percentage (88.6%) of patients whose symptoms were impacted by the phenylalanine challenge supports the value of plasma large neutral amino acid manipulation in the treatment of this disorder. Further, as is seen in Table 3 below, this pattern of change was quite similar whether or not the patient had coexisting tardive dyskinesia. Though there is a case by case aspect to treatment success which makes prediction difficult, one can set forth some predictive generalizations as below. A further caveat is that because of the possible case of the worsening of a coexisting disorder the clinician must first treat the disorder that is causing the patient the most difficulty. Difficulty would be defined by some interaction between severity of symptom and disorder.
# [3] = Plasma large neutral amino acid and phenylethylamine levels, fasting and 2 hours after protein challenge (Study Two); conditions: for Plasma level, Post-loading: 2 hours after protein challenge; for Plasma level, Post-loading / Plasma level, Fasting: mean ± SD
# Method: Blood samples were drawn from patients after an overnight fast and 2 hours after the ingestion of a protein challenge. This challenge was served in the form of a breakfast which consisted of orange juice, a cheese omelette, ham, a waffle and coffee.
# The blood samples were assayed for the levels of plasma large neutral amino acids; phenylalanine, tyrosine, tryptophan, alanine, isoleucine, leucine, valine, histidine, and threonine, and for the levels of phenylethylamine. The latter was also measured because it is a major metabolite of phenylalanine and considered to be a neuromodulator.
# The plasma amino acids, with the exception of tryptophan, were analyzed by phenylisothiocyanate (PITC) derivation followed by HPLC. The analysis of tryptophan was performed using HPLC with spectrofluormetric detection.
# The plasma values of the amino acids were studied both as actual levels and as the ratio of phenylalanine level to the level of the other large neutral amino acids in the plasma. This ratio serves as an index of the entry of phenylalanine into the brain, which accounts for the competition of the other large neutral amino acids (LNAA) with phenylalanine (Phe) at the blood brain barrier, as discussed. previously. This ratio is calculated as follows: [formula]
# [4] = of the large neutral amino acids; cited from earlier work
# [5] = Plasma phenylalanine response to phenylalanine challenge in TD-yes and TD-no patients (Study Three); format: in vivo, psychotic males and females; conditions: 100 mg/kg, TD Yes vs TD No patients
# Excerpt: In this work (Study Two and Three) the plasma level tells us the actual level of phenylalanine in the blood and the phenylalanine/large neutral amino acid ratio gives us a marker relative to the other large neutral amino acids. This ratio thus provides information on brain levels of phenylalanine, or more specifically, the penetrance past the blood brain barrier of phenylalanine. This is so because it is known that phenylalanine competes with the other large neutral amino acids, such as tyrosine, tryptophan, isoleucine, leucine and valine for entry into the brain across the blood brain barrier.
# [6] = after challenge administration, most of the subjects; cited from earlier work
# [7] = Phenylalanine challenge, tardive dystonia symptoms (Study Three, Example 4); format: in vivo, patients (psychotic males and females); conditions: 100 mg/kg
# Method: as §1, §2
# Thus, more than a majority of patients (57.9%) did respond to the phenylalanine challenge. […] Patients without coexisting TD were much more likely to improve their tardive dystonia symptom status after a phenylalanine challenge than patients with coexisting TD, while patients with coexisting TD were much more likely to show a higher level of symptom worsening than those without coexisting TD.
# [8] = Phenylalanine challenge, akathisia symptoms (Study Three, Example 4); format: in vivo, patients (psychotic males and females); conditions: 100 mg/kg
# Method: as §1, §2
# The large percentage (81.0%) of patients whose symptoms were impacted by the phenylalanine challenge supports the value of plasma large neutral amino acid manipulation in the treatment of this disorder. […] Patients without coexisting TD were more likely to show a higher level of symptom worsening than those with coexisting TD. As said for Parkinsonism, above, though it is the case that there is a case by case aspect to treatment success which makes prediction difficult, one can set forth some predictive generalizations as below: […]
# [9] = in vivo; cited from earlier work
# [10] = in vivo; cited from earlier work; remark: listed apart in the source
# [11] = test system: serotonin receptors; conditions: animals; cited from earlier work
# [12] = 2 hours, ALL (n=185), listed as Phenylalanine
# [13] = TD Symptom Persistence group (n = 15)
# [14] = TD Symptom Remission group (n = 15)
structure (smiles),measurement,setting,value
N[C@@H](Cc1ccccc1)C(=O)O [phenylalanine],TD symptom change,"[1]; Patient B, coexisting TD and tardive dystonia",did not show a symptom increase
same,patients with an increase in TD symptom severity,[1]; after Phe challenge 100 mg/kg,three out of four
same,"increase in TD symptom severity, range over patients","[1]; after Phe challenge 100 mg/kg, three patients",69% to 440
same,patients with an increase in TD symptom severity,"[1]; after Phe challenge 100 mg/kg, listed as Phe",Three
same,patients whose Parkinsonism symptoms were impacted,[2]; 2 hours,88.6%
same,"Parkinsonism BETTER, %","[2]; 2 hours, ALL (n=185)",42.7%
same,"Parkinsonism BETTER, No.","[2]; 2 hours, ALL (n=185)",79 patients
same,"Parkinsonism NO CHANGE, %","[2]; 2 hours, ALL (n=185)",11.3%
same,"Parkinsonism NO CHANGE, No.","[2]; 2 hours, ALL (n=185)",21 patients
same,"Parkinsonism WORSE, %","[2]; 2 hours, ALL (n=185)",45.9%
same,"Parkinsonism WORSE, No.","[2]; 2 hours, ALL (n=185)",85 patients
same,"Parkinsonism WORSE, %","[2]; 2 hours, ALL (n=185), listed as Phe",46%
same,"Parkinsonism NO CHANGE, %",[2]; [12],11.4%
same,"Parkinsonism WORSE, %",[2]; [12],45.9%
same,"Parkinsonism BETTER, %",[2]; TD-NO (n=84),40.5%
same,"Parkinsonism BETTER, No.",[2]; TD-NO (n=84),34
same,"Parkinsonism NO CHANGE, %",[2]; TD-NO (n=84),13.1%
same,"Parkinsonism NO CHANGE, No.",[2]; TD-NO (n=84),11
same,"Parkinsonism WORSE, %",[2]; TD-NO (n=84),46.4%
same,"Parkinsonism WORSE, No.",[2]; TD-NO (n=84),39
same,"Parkinsonism BETTER, %",[2]; TD-YES (n=101),44.5%
same,"Parkinsonism BETTER, No.",[2]; TD-YES (n=101),45
same,"Parkinsonism NO CHANGE, %",[2]; TD-YES (n=101),9.9%
same,"Parkinsonism NO CHANGE, No.",[2]; TD-YES (n=101),10
same,"Parkinsonism WORSE, %",[2]; TD-YES (n=101),45.6%
same,"Parkinsonism WORSE, No.",[2]; TD-YES (n=101),46
same,percentage change in plasma level,[3]; in vivo,larger percentage changes
same,post challenge phenylalanine to LNAA ratio,[3]; in vivo,significantly higher
same,affinity for the blood brain barrier,[4],highest affinity for the blood brain barrier
same,plasma phenylalanine and phenylalanine/LNAA ratio after phenylalanine challenge,[5],statistically significant higher levels
same,time of peak phenylalanine plasma level,[6],2 h
same,patients whose tardive dystonia responded to the phenylalanine challenge,[7]; 2 hours,57.9%
same,"Tardive dystonia BETTER, %","[7]; 2 hours, ALL (n=19)",21.0%
same,"Tardive dystonia BETTER, No.","[7]; 2 hours, ALL (n=19)",4 patients
same,"Tardive dystonia NO CHANGE, %","[7]; 2 hours, ALL (n=19)",42.1%
same,"Tardive dystonia NO CHANGE, No.","[7]; 2 hours, ALL (n=19)",8 patients
same,"Tardive dystonia WORSE, %","[7]; 2 hours, ALL (n=19)",36.9%
same,"Tardive dystonia WORSE, No.","[7]; 2 hours, ALL (n=19)",7 patients
same,"Tardive dystonia BETTER, %",[7]; TD-NO (n=5),60.0%
same,"Tardive dystonia BETTER, No.",[7]; TD-NO (n=5),3
same,"Tardive dystonia NO CHANGE, %",[7]; TD-NO (n=5),40.0%
same,"Tardive dystonia NO CHANGE, No.",[7]; TD-NO (n=5),2
same,"Tardive dystonia WORSE, %",[7]; TD-NO (n=5),0.0%
same,"Tardive dystonia WORSE, No.",[7]; TD-NO (n=5),none
same,"Tardive dystonia WORSE, No.","[7]; TD-NO (n=5), listed as Phenylalanine",0
same,"Tardive dystonia BETTER, %",[7]; TD-YES (n=14),7.1%
same,"Tardive dystonia BETTER, No.",[7]; TD-YES (n=14),1
same,"Tardive dystonia NO CHANGE, %",[7]; TD-YES (n=14),42.9%
same,"Tardive dystonia NO CHANGE, No.",[7]; TD-YES (n=14),6
same,"Tardive dystonia WORSE, %",[7]; TD-YES (n=14),50.0%
same,"Tardive dystonia WORSE, No.",[7]; TD-YES (n=14),7
same,patients whose akathisia symptoms were impacted,[8]; 2 hours,81.0%
same,"Akathisia BETTER, %","[8]; 2 hours, ALL (n=105)",33.4%
same,"Akathisia BETTER, No.","[8]; 2 hours, ALL (n=105)",35 patients
same,"Akathisia NO CHANGE, %","[8]; 2 hours, ALL (n=105)",19.0%
same,"Akathisia NO CHANGE, No.","[8]; 2 hours, ALL (n=105)",20 patients
same,"Akathisia WORSE, %","[8]; 2 hours, ALL (n=105)",47.6%
same,"Akathisia WORSE, No.","[8]; 2 hours, ALL (n=105)",50 patients
same,"Akathisia BETTER, %",[8]; TD-NO (n=42),23.8%
same,"Akathisia BETTER, No.",[8]; TD-NO (n=42),10
same,"Akathisia NO CHANGE, %",[8]; TD-NO (n=42),16.7%
same,"Akathisia NO CHANGE, No.",[8]; TD-NO (n=42),7
same,"Akathisia WORSE, %",[8]; TD-NO (n=42),59.5%
same,"Akathisia WORSE, No.",[8]; TD-NO (n=42),25
same,"Akathisia BETTER, %",[8]; TD-YES (n=63),39.7%
same,"Akathisia BETTER, No.",[8]; TD-YES (n=63),25
same,"Akathisia NO CHANGE, %",[8]; TD-YES (n=63),21.6%
same,"Akathisia NO CHANGE, No.",[8]; TD-YES (n=63),13
same,"Akathisia WORSE, %",[8]; TD-YES (n=63),39.7%
same,"Akathisia WORSE, No.",[8]; TD-YES (n=63),25
CC(C)[C@H](N)C(=O)O [valine],percentage change in plasma level,[3]; in vivo,larger percentage changes
same,valine/LNAA ratio change,[3]; in vivo,increased significantly
CN1CCN(C2=Nc3cc(Cl)ccc3Nc3ccccc32)CC1 [clozapine],movement disorder side-effects,[9],less likely to result in movement disorder side-effects
same,other side effects,[9],carries the risk of other serious life-threatening side effects
CC(C)NCC(O)COc1cccc2ccccc12 (centres unmarked) [propranolol],treatment of neuroleptic-induced akathisia,[10],successful in some patients
"NCCc1ccccc1 [phenylethylamine, reference compound]","Plasma level, Percent Change (Postloading/Fasting)",[3]; [13],+14.7%
same,"Plasma level, Post-loading",[3]; [13],0.0951 ± 0.0192 ng/mL
same,"Plasma level, Fasting",[3]; [13],0.0829 ± 0.0198 ng/mL
same,"Plasma level, Percent Change (Postloading/Fasting)",[3]; [14],+5.9%
same,"Plasma level, Post-loading",[3]; [14],0.0927 ± 0.0218 ng/mL
same,"Plasma level, Fasting",[3]; [14],0.0875 ± 0.0305 ng/mL
same,phenylethylamine level change,"[3]; persistence group, but not in remission group",significantly increased
same,motor effect,[11],produces a motor syndrome which can be blocked by serotonin antagonists

# From patent US5919823A, “Treatment of secondary movement disorders using large neutral amino acids” (The Research Foundation For Mental Hygiene, priority 1997, dated 1999)
